Source: PMC12211128, “Safety, tolerability, pharmacokinetic and pharmacodynamic effects of the muscarinic M1 positive allosteric modulator VU0467319 for Alzheimer’s disease: a single ascending-dose study in healthy participants” (Alzheimer's Research & Therapy, 2025)
Marks after values point to notes of the source that are not given here.

Test system: healthy participants
Test: 12-lead ECG / QTcF and concentration/QT analysis
Format: in vivo, human
Conditions: for QTcF: mean (SD)
Experimental: Safety and tolerability were assessed throughout the study via treatment emergent adverse event (TEAE) monitoring, vital signs (blood pressure, pulse rate, respiration rate, oral temperature), physical examinations, 12-lead ECGs, and clinical laboratory parameters including complete blood count (CBC), coagulation, hematology, clinical chemistry assessments, and urinalysis. Safety laboratory tests were drawn at pre-dose and at 5, 24, 36 and 144-hours post-dose for 60–400 mg Cohorts; and at 24, 48, 72 and 144-hours post-dose for the 600 mg and Food Effect Cohort. ECG assessments were conducted at pre-dose and at 1, 2, 3, 5, 9, 24, 36 and 144-hours post-dose for 60–400 mg Cohorts; and at 2, 3, 5, 9, 24, 36, 72 and 144-hours post-dose for the 600 mg and Food Effect Cohort. All adverse events (AEs) were assessed by the investigator for severity and relationship to study medication or study procedures.
All AEs were coded using the Medical Dictionary for Regulatory Activities (MedDRA) version 22.0. All AEs were listed, and the emergence of TEAEs were categorized by body system affected and analyzed to determine whether they were related to treatment. Analysis of TEAEs for VU319 vs. Placebo were completed using Fisher’s Exact Test. Assessment of the grade of toxicity or relation to the study drug for each adverse event was determined by the Investigator. Changes in vital signs, physical examination, and laboratory tests were collected. Changes in vital signs from pre-dose to 48 h post-dose were placed into 10-time bins and assessed using mixed-measures ANOVA with the time bins as the within-subjects factor and dose as the between-subjects factor. To assess changes is QT analyses with respect to VU319 concentration, we calculated the maximal change in QTcF from baseline for each participant. We assessed the relationship between these maximal changes from baseline with the participant’s Cmax using Pearson correlations. Outlier QTcF values (> 450 ms) were also assessed against PK concentrations to examine it there was any relationship using Pearson correlations. Analyses of safety data was completed by SAS version 9.4.

In the case of `Cn1cc2c(-c3cc(F)c(CN4Cc5ncccc5C4=O)c(F)c3)cccc2n1` [VU319], the QTcF (Food effect study, 120 mg Fasted, +2 hour) is reported as 405.0 (22.7), the QTcF (Food effect study, 120 mg Fasted, +3 hour) is reported as 405.9 (19.13) and the QTcF (Food effect study, 120 mg Fasted, +5 hour) is reported as 406.4 (18.05). The QTcF (Food effect study, 120 mg Fasted, +9 hour) was 405.5 (14.4), the QTcF (Food effect study, 120 mg Fasted, +24 hour) was 401.2 (19.21) and the QTcF (Food effect study, 120 mg Fasted, +36 hour) was 405.2 (23.74). For the same molecule, the QTcF (Food effect study, 120 mg Fasted, +72 hour) was 403.2 (16.39), the QTcF (Food effect study, 120 mg Fasted, +144 hour) was 405.1 (19.72) and the QTcF (Food effect study, 120 mg Fasted, Baseline) was 408.9 (20.1). The QTcF (Food effect study, 120 mg Fed, +2 hour) was 399.2 (19.09), the QTcF (Food effect study, 120 mg Fed, +3 hour) was 402.3 (24.08) and the QTcF (Food effect study, 120 mg Fed, +5 hour) was 405.0 (16.01). For the same molecule, the QTcF (Food effect study, 120 mg Fed, +9 hour) was 402.5 (19.51), the QTcF (Food effect study, 120 mg Fed, +24 hour) was 403.0 (16.89) and the QTcF (Food effect study, 120 mg Fed, +36 hour) was 399.5 (21.91). For the same molecule, the QTcF (Food effect study, 120 mg Fed, +72 hour, n = 9, in ms) was 402.7 (17.38)^#, the QTcF (Food effect study, 120 mg Fed, +144 hour) was 403.6 (24.86) and the QTcF (Food effect study, 120 mg Fed, Baseline) was 406.7 (21.7). For the same molecule, the “QT intervals, effect of dose” value (SAD study) was “no significant dose-by-time interactions or main effects of dose group”, the QTcF (SAD study, 60 mg, +1 hour) was 411.0 (11.82) and the QTcF (SAD study, 60 mg, +2 hour) was 414.8 (18.13). The QTcF (SAD study, 60 mg, +3 hour) was 412.8 (23.01), the QTcF (SAD study, 60 mg, +5 hour) was 417.2 (19.47) and the QTcF (SAD study, 60 mg, +9 hour) was 411.3 (21.31). The QTcF (SAD study, 60 mg, +24 hour) was 408.7 (8.52), the QTcF (SAD study, 60 mg, +36 hour, n = 5) was 410.6 (10.5)* and the QTcF (SAD study, 60 mg, +144 hour) was 415.5 (7.66). The QTcF (SAD study, 60 mg, Baseline) was 418.0 (17.1), the QTcF (SAD study, 120 mg, +1 hour) was 409.7 (15.34) and the QTcF (SAD study, 120 mg, +2 hour) was 407.0 (21.02). The QTcF (SAD study, 120 mg, +3 hour) was 412.7 (20.02), the QTcF (SAD study, 120 mg, +5 hour) was 406.8 (15.5) and the QTcF (SAD study, 120 mg, +9 hour) was 409.2 (16.68). For the same molecule, the QTcF (SAD study, 120 mg, +24 hour) was 408.3 (12.64), the QTcF (SAD study, 120 mg, +36 hour) was 408.0 (18.17) and the QTcF (SAD study, 120 mg, +144 hour) was 406.7 (17.95). For the same molecule, the QTcF (SAD study, 120 mg, Baseline) was 406.0 (12.23), the QTcF (SAD study, 240 mg, +1 hour) was 422.7 (22.05) and the QTcF (SAD study, 240 mg, +2 hour) was 415.5 (28.46). For the same molecule, the QTcF (SAD study, 240 mg, +3 hour) was 421.7 (19.48), the QTcF (SAD study, 240 mg, +5 hour) was 414.8 (24.28) and the QTcF (SAD study, 240 mg, +9 hour) was 421.0 (15.03). For the same molecule, the QTcF (SAD study, 240 mg, +24 hour) was 415.2 (16.22), the QTcF (SAD study, 240 mg, +36 hour) was 418.2 (24.29) and the QTcF (SAD study, 240 mg, +144 hour) was 422.8 (12.32). The QTcF (SAD study, 240 mg, Baseline) was 426.0 (33.22), the QTcF (SAD study, 400 mg, +1 hour) was 405.3 (24.45) and the QTcF (SAD study, 400 mg, +2 hour) was 405.0 (26.62). For the same molecule, the QTcF (SAD study, 400 mg, +3 hour) was 405.3 (25.65), the QTcF (SAD study, 400 mg, +5 hour) was 405.2 (27.72) and the QTcF (SAD study, 400 mg, +9 hour) was 400.7 (23.41). For the same molecule, the QTcF (SAD study, 400 mg, +24 hour) was 400.7 (17.13), the QTcF (SAD study, 400 mg, +36 hour) was 404.5 (20.16) and the QTcF (SAD study, 400 mg, +144 hour) was 410.5 (10.21). For the same molecule, the QTcF (SAD study, 400 mg, Baseline) was 401.8 (24.13), the QTcF (SAD study, 600 mg, +2 hour) was 419.7 (27.65) and the QTcF (SAD study, 600 mg, +3 hour) was 419.5 (31.48). For the same molecule, the QTcF (SAD study, 600 mg, +5 hour) was 413.8 (23.37), the QTcF (SAD study, 600 mg, +9 hour) was 413.8 (26.54) and the QTcF (SAD study, 600 mg, +24 hour) was 408.0 (17.38). For the same molecule, the QTcF (SAD study, 600 mg, +36 hour) was 418.2 (24.79), the QTcF (SAD study, 600 mg, +72 hour) was 413.3 (19.22) and the QTcF (SAD study, 600 mg, +144 hour) was 415.7 (23.99). The QTcF (SAD study, 600 mg, Baseline) was 416.0 (25.35), the “relationship between change in QTcF from baseline and Cmax” value (SAD study, p > 0.6) was “did not show a significant relationship” and the “relationship between change in QTcF from baseline and Cmax” value (food effect study, Fasted p > 0.4, Fed p > 0.5) was “did not show a significant relationship”.
